Values of other authors in patent US20030136407A1, “Liquid composition to be vaporized for inhibiting increase in blood sugar level, vaporizer for the same and use of the same” (priority 1999, published 2003).

Test system: Ehrlich Ascites Tumour Cells
Conditions: in vitro; Chem. Pharm. Bull. 41(12) 2129-2131 (1993)

C[C@H]1[C@H](C)CC[C@]2(C(=O)O)CC[C@]3(C)C(=CC[C@@H]4[C@@]5(C)C[C@@H](O)[C@H](O)C(C)(C)[C@@H]5CC[C@]43C)[C@H]12 [corosolic acid]
activation of the mobility of grape sugar: activates the mobility of grape sugar
